The values that follow come from patent publication US20060148832A1, “Use of 2-amino-2h-quinazoline derivatives for producing therapeutic agents” (priority 2003, published 2006).

The subject of data set [1] is blood platelets. The note with it: mentioned in U.S. Pat. No. 4,146,718; cited from earlier work.
Data set [2] in a line: Cyclization of the anagrelide prodrug to anagrelide in aqueous medium as a function of pH. Format: physicochemical. The note with it: 37° C., after one hour.
From the text: The 2-amino-2H-quinazoline derivatives according to the invention can be cyclized to the anagrelide in aqueous medium as a function of the pH without addition of other adjuvants or boiling under reflux for hours. […] A cyclization of the compound with the general chemical formula I in strongly acidic pH range, as prevails, for example, in the stomach of mammals, has only been detected up to a certain small percentage.
For the cyclization, 0.3 mmol of the anagrelide prodrug methyl-(2-amino-5,6-dichloro-2H-quinazolin-3-yl) acetate hydrochloride (analysis: UV-Maxima 217,262 nm; MW 324.59; mp>250° C.), corresponding to the general formula I, wherein R1 indicates an alkyl group with one carbon atom, R2 and R3 each indicate a hydrogen atom, and R4 and R5 each indicate a chlorine atom, was added to 10 ml of an aqueous hydrochloric acid solution (0.1 M HCl), at 37° C. with slight stirring. After one hour, 9.6% of the prodrug was converted to anagrelide. [drawing 2]
For the cyclization, 0.3 mmol of the anagrelide prodrug methyl-(2-amino-5,6-dichloro-2H-quinazolin-3-yl) acetate hydrochloride (MW 324.59) corresponding to the general formula I, wherein R1 indicates an alkyl group with one carbon atom, R2 and R3 each indicate a hydrogen atom, and R4 and R5 each indicate a chlorine atom, was added to 10 ml of pH-neutral water, at 37° C. with slight stirring. After one hour, 58% of the prodrug was converted to anagrelide.
For the cyclization, 0.3 mmol of the anagrelide prodrug methyl-(2-amino-5,6-dichloro-2H-quinazolin-3-yl) acetate hydrochloride corresponding to the general formula I, wherein R1 indicates an alkyl group with one carbon atom, R2 and R3 each indicate a hydrogen atom, and R4 and R5 each indicate a chlorine atom, was added to 10 ml of an aqueous basic solution (0.1 M NaOH), at 37° C. with slight stirring. After one hour, 100% of the prodrug was converted to anagrelide.
(§1) For the cyclization, 0.3 mmol of the anagrelide prodrug ethyl-(2-amino-5,6-dichloro-2H-quinazolin-3-yl) acetate hydrochloride hemihydrate, corresponding to the general formula I, wherein R1 indicates an alkyl group with two carbon atoms, R2 and R3 each indicate a hydrogen atom, and R4 and R5 each indicate a chlorine atom, was added to 10 ml of an aqueous basic solution (15 g of sodium hydrogen carbonate in 1 liter of water), at 37° C. with slight stirring. This basic solution was selected because it corresponds to a common test system for simulation of the milieu of the intestinal juice (pH between 8 and 10). After one hour, 100% of the prodrug was converted to anagrelide.
as §1, with “methyl-(2-amino-5,6-dichloro-2H-quinazolin-3-yl)” for “ethyl-(2-amino-5,6-dichloro-2H-quinazolin-3-yl)”, “one” for “two”, “atom,” for “atoms,”
as §1, with “hydrobromide (analysis: UV maxima 204, 216, 262 nm; mp 291-293,” for “hydrochloride hemihydrate,”

For data set [3], the system named is thrombocytes. The note with it: dose of 3 mg/day, after one week; cited from earlier work.
For data set [4] the following is noted: anagrelide base; cited from earlier work.
The mark [5] stands for this setting: 0.3 mmol in 10 ml aqueous basic solution (15 g sodium hydrogen carbonate in 1 liter water; simulated intestinal juice, pH between 8 and 10).

In the case of `Br.CCOC(=O)CN1Cc2c(ccc(Cl)c2Cl)N=C1N` [Ethyl-(2-amino-5,6-dichloro-2H-quinazolin-3-yl) acetate hydrobromide], in data set [1], the “effect on blood platelets” value was “anti-aggregative effect on blood platelets”. Further, the “prodrug converted to anagrelide” value in data set [2] (setting [5]) was 100%. Consider `COC(=O)CN1C=c2c(Cl)c(Cl)ccc2=NC1N.Cl` (stereo not drawn) [Methyl-(2-amino-5,6-dichloro-2H-quinazolin-3-yl) acetate hydrochloride], for which the “prodrug converted to anagrelide” value was found to be 100% in data set [2] (0.3 mmol in 10 ml aqueous basic solution (0.1 M NaOH)), 9.6% in data set [2] (0.3 mmol in 10 ml aqueous hydrochloric acid solution (0.1 M HCl)) and 58% in data set [2] (0.3 mmol in 10 ml pH-neutral water). Take `O=C1CN2Cc3c(ccc(Cl)c3Cl)N=C2N1` [anagrelide, 6,7-dichloro-1,5-dihydroimidazo-[2,1-b]-quinazolin-2-[3H]-one]: the decrease in thrombocytes result in data set [3] was “approximately 50%”. For the same compound, in data set [4], the solubility in water result was “difficultly soluble in water”. Consider “Ethyl-(2-amino-5,6-dichloro-2H-quinazolin-3-yl) acetate hydrochloride hemihydrate”, for which the “prodrug converted to anagrelide” value in data set [2] (setting [5]) is on record as 100%.

On to “Methyl-(2-amino-5,6-dichloro-2H-quinazolin-3-yl) acetate hydrochloride hemihydrate”, for which the “prodrug converted to anagrelide” value in data set [2] (setting [5]) was 100%.
